Patent publication US9017689B2, “Peptides for vaccine against birch allergy” (Circassia Limited, priority 2010, dated 2015)
Like-named read-outs stand apart in the source and are kept apart here. Ends that are not written are not given here.

Assay: Solubility screening in trehalose matrices pH 2.65 to 7.03;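 also: test items are peptides, each checked for solubility in every trehalose matrix, the matrices made up in distilled deionised water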
Assay type: physicochemical
Conditions: for solubility: read-out: Solubility [mg per ml]
[1] = 2 mM HCl and 260 mM trehalose dihydrate, pH 2.65
[2] = 10 mM potassium dihydrogen phosphate and 260 mM trehalose dihydrate, pH 6.03
[3] = 10 mM potassium dihydrogen phosphate and 260 mM trehalose dihydrate, pH 7.03
[4] = 10 mM sodium citrate and 260 mM trehalose dihydrate, pH 3.01
[5] = 10 mM sodium citrate and 260 mM trehalose dihydrate, pH 3.99
[6] = 10 mM sodium citrate and 260 mM trehalose dihydrate, pH 5.02
[7] = aqueous buffer, 10 mM potassium dihydrogen phosphate and 260 mM trehalose dihydrate, pH 6.03
[8] = aqueous buffer, 10 mM potassium dihydrogen phosphate and 260 mM trehalose dihydrate, pH 7.03
[9] = aqueous buffer, 10 mM sodium citrate and 260 mM trehalose dihydrate, pH 3.01
[10] = aqueous buffer, 10 mM sodium citrate and 260 mM trehalose dihydrate, pH 3.99
[11] = aqueous buffer, 10 mM sodium citrate and 260 mM trehalose dihydrate, pH 5.02
[12] = water, 2 mM HCl and 260 mM trehalose dihydrate, pH 2.65
[13] = 10 mM sodium citrate and 260 mM trehalose dihydrate, pH 6.01
[14] = aqueous buffer, 10 mM sodium citrate and 260 mM trehalose dihydrate, pH 6.01

Q: Which “Comments (solubility on preparation)” value [1] does the source give for KEMGETLLRAVESYLLAHS [Bir09B] here?
A: Its value is “Completely dissolved”.

Q: What about the “Solubility [mg per ml 'as is']” value [1] of the same sequence?
A: The value was 12.20 mg per ml ‘as is’.

Q: And the “Solubility [μmol per ml]” value [1]?
A: The value was 4.942 μmol per ml.

Q: What about the “Solubility after 24 Hours” value [1] of the same sequence?
A: The value was “Completely dissolved”.

Q: What about the “Commute (solubility on preparation)” value [2] of the same sequence?
A: The value was “Completely dissolved in”.

Q: And the “Solubility [mg per ml 'as is']” value [2]?
A: Its value is 0.36 mg per ml ‘as is’.

Q: And the “Solubility [μmol per ml]” value [2]?
A: The value was 0.147 μmol per ml.

Q: What about the “Solubility after 24 Hours” value [2] of the same sequence?
A: The value was “Precipitated out,”.

Q: What about the “Comments (solubility on preparation)” value [3] of the same sequence?
A: Its value is “Completely dissolved”.

Q: What about the “Solubility [mg per ml 'as is']” value [3] of the same sequence?
A: Its value is 21.70 mg per ml ‘as is’.

Q: What about the “Solubility [μmol per ml]” value [3] of the same sequence?
A: Its value is 8.790 μmol per ml.

Q: And the “Solubility after 24 Hours” value [3]?
A: Its value is “Completely dissolved”.

Q: What about the “Comments (solubility on preparation)” value [4] of the same sequence?
A: The value was “Completely dissolved”.

Q: What about the “Solubility [mg per ml 'as is']” value [4] of the same sequence?
A: The value was 11.62 mg per ml ‘as is’.

Q: And the “Solubility [μmol per ml]” value [4]?
A: Its value is 4.707 μmol per ml.

Q: And the “Solubility after 24 Hours” value [4]?
A: Its value is “Completely dissolved”.

Q: What about the “Comments (solubility on preparation)” value [5] of the same sequence?
A: Its value is “Completely dissolved”.

Q: And the “Solubility [mg per ml 'as is']” value [5]?
A: Its value is 11.40 mg per ml ‘as is’.

Q: What about the “Solubility [μmol per ml]” value [5] of the same sequence?
A: Its value is 4.618 μmol per ml.

Q: And the “Solubility after 24 Hours” value [5]?
A: Its value is “Completely dissolved”.

Q: What about the “Comments (solubility on preparation)” value [6] of the same sequence?
A: The value was “Completely dissolved”.

Q: What about the “Solubility [mg per ml 'as is']” value [6] of the same sequence?
A: The value was 12.75 mg per ml ‘as is’.

Q: And the “Solubility [μmol per ml]” value [6]?
A: The value was 5.165 μmol per ml.

Q: What about the “Solubility after 24 Hours” value [6] of the same sequence?
A: The value was “Completely dissolved”.

Q: And the solubility [7]?
A: The solubility was no less than 315 µg/mL.

Q: And the solubility [8]?
A: Its solubility is no less than 18900 µg/mL.

Q: What about the solubility [9] of the same sequence?
A: Its solubility is no less than 10100 µg/mL.

Q: What about the solubility [10] of the same sequence?
A: Its solubility is no less than 9920 µg/mL.

Q: What about the solubility [11] of the same sequence?
A: The solubility was no less than 11100 µg/mL.

Q: What about the solubility [12] of the same sequence?
A: The solubility was no less than 10600 µg/mL.

Q: For AKYMVIQGEPGRVIRGK [Bir12B], which “Comments (solubility on preparation)” value [1] is on record?
A: The value was “Completely dissolved”.

Q: And the “Solubility [mg per ml 'as is']” value [1]?
A: Its value is 10.22 mg per ml ‘as is’.

Q: What about the “Solubility [μmol per ml]” value [1] of the same sequence?
A: The value was 4.490 μmol per ml.

Q: And the “Solubility after 24 Hours” value [1]?
A: Its value is “Completely dissolved”.

Q: And the “Commute (solubility on preparation)” value [2]?
A: The value was “Completely dissolved”.

Q: And the “Solubility [mg per ml 'as is']” value [2]?
A: Its value is 23.84 mg per ml ‘as is’.

Q: And the “Solubility [μmol per ml]” value [2]?
A: Its value is 10.474 μmol per ml.

Q: What about the “Solubility after 24 Hours” value [2] of the same sequence?
A: The value was “Completely dissolved”.

Q: What about the “Comments (solubility on preparation)” value [3] of the same sequence?
A: The value was “Completely dissolved”.

Q: And the “Solubility [mg per ml 'as is']” value [3]?
A: The value was 20.62 mg per ml ‘as is’.

Q: And the “Solubility [μmol per ml]” value [3]?
A: The value was 9.060 μmol per ml.

Q: What about the “Solubility after 24 Hours” value [3] of the same sequence?
A: Its value is “Completely dissolved”.

Q: What about the “Comments (solubility on preparation)” value [4] of the same sequence?
A: The value was “Completely dissolved”.

Q: What about the “Solubility [mg per ml 'as is']” value [4] of the same sequence?
A: The value was 5.47 mg per ml ‘as is’.

Q: What about the “Solubility [μmol per ml]” value [4] of the same sequence?
A: The value was 2.403 μmol per ml.

Q: What about the “Solubility after 24 Hours” value [4] of the same sequence?
A: Its value is “Completely dissolved”.

Q: What about the “Comments (solubility on preparation)” value [5] of the same sequence?
A: Its value is “Completely dissolved”.

Q: And the “Solubility [mg per ml 'as is']” value [5]?
A: The value was 10.32 mg per ml ‘as is’.

Q: What about the “Solubility [μmol per ml]” value [5] of the same sequence?
A: The value was 4.534 μmol per ml.

Q: And the “Solubility after 24 Hours” value [5]?
A: Its value is “Completely dissolved”.

Q: What about the “Comments (solubility on preparation)” value [6] of the same sequence?
A: The value was “Completely dissolved”.

Q: And the “Solubility [mg per ml 'as is']” value [6]?
A: Its value is 5.84 mg per ml ‘as is’.

Q: What about the “Solubility [μmol per ml]” value [6] of the same sequence?
A: The value was 2.564 μmol per ml.

Q: What about the “Solubility after 24 Hours” value [6] of the same sequence?
A: The value was “Completely dissolved”.

Q: And the “Comments (solubility on preparation)” value [13]?
A: The value was “Completely dissolved”.

Q: What about the “Solubility [mg per ml 'as is']” value [13] of the same sequence?
A: The value was 2.28 mg per ml ‘as is’.

Q: And the “Solubility [μmol per ml]” value [13]?
A: The value was 1.002 μmol per ml.

Q: And the “Solubility after 24 Hours” value [13]?
A: Its value is “Completely dissolved”.

Q: What about the solubility [7] of the same sequence?
A: Its solubility is no less than 19900 µg/mL.

Q: And the solubility [8]?
A: Its solubility is no less than 17200 µg/mL.

Q: And the solubility [9]?
A: Its solubility is no less than 4570 µg/mL.

Q: And the solubility [10]?
A: Its solubility is no less than 8630 µg/mL.

Q: And the solubility [11]?
A: The solubility was no less than 4880 µg/mL.

Q: What about the solubility [14] of the same sequence?
A: The solubility was no less than 1910 µg/mL.

Q: And the solubility [12]?
A: Its solubility is no less than 8540 µg/mL.

Q: With ETLLRAVESYLLAHSDAY [Bir09] as the sequence, how does the “Comments (solubility on preparation)” value [1] read?
A: The value was “Completely dissolved•”.

Q: And the “Solubility [mg per ml 'as is']” value [1]?
A: Its value is 0.92 mg per ml ‘as is’.

Q: And the “Solubility [μmol per ml]” value [1]?
A: The value was 0.379 μmol per ml.

Q: And the “Solubility after 24 Hours” value [1]?
A: The value was “Completely dissolved•”.

Q: What about the “Solubility [mg per ml 'as is']” value [2] of the same sequence?
A: The value was 0.35 mg per ml ‘as is’.

Q: And the “Solubility [μmol per ml]” value [2]?
A: Its value is 0.143 μmol per ml.

Q: And the “Comments (solubility on preparation)” value [3]?
A: Its value is “Completely dissolved”.

Q: What about the “Solubility [mg per ml 'as is']” value [3] of the same sequence?
A: The value was 1.52 mg per ml ‘as is’.

Q: What about the “Solubility [μmol per ml]” value [3] of the same sequence?
A: Its value is 0.627 μmol per ml.

Q: What about the “Solubility after 24 Hours” value [3] of the same sequence?
A: The value was “Completely dissolved”.

Q: What about the “Comments (solubility on preparation)” value [4] of the same sequence?
A: The value was “Undissolved in 1.5 mL•”.

Q: What about the “Solubility [mg per ml 'as is']” value [4] of the same sequence?
A: Its value is 0.37 mg per ml ‘as is’.

Q: And the “Solubility [mg per ml]” value [4]?
A: Its value is 0.314 mg per ml.

Q: And the “Solubility [μmol per ml]” value [4]?
A: Its value is 0.153 μmol per ml.

Q: And the “Solubility after 24 Hours” value [4]?
A: Its value is “Undissolved”.

Q: What about the “Solubility [mg per ml 'as is']” value [5] of the same sequence?
A: Its value is 0.36 mg per ml ‘as is’.

Q: What about the “Solubility [μmol per ml]” value [5] of the same sequence?
A: The value was 0.148 μmol per ml.

Q: And the “Solubility [mg per ml 'as is']” value [6]?
A: The value was 0.37 mg per ml ‘as is’.

Q: What about the “Solubility [μmol per ml]” value [6] of the same sequence?
A: Its value is 0.154 μmol per ml.

Q: And the “Comments (solubility on preparation)” value [13]?
A: Its value is “Completely dissolved”.

Q: What about the “Solubility [mg per ml 'as is']” value [13] of the same sequence?
A: The value was 1.03 mg per ml ‘as is’.

Q: And the “Solubility [μmol per ml]” value [13]?
A: Its value is 0.426 μmol per ml.

Q: And the “Solubility after 24 Hours” value [13]?
A: Its value is “completely dissolved”.

Q: And the solubility [7]?
A: Its solubility is no less than 293 µg/mL.

Q: And the solubility [8]?
A: Its solubility is no less than 1290 µg/mL.

Q: What about the solubility [10] of the same sequence?
A: Its solubility is no less than 303 µg/mL.

Q: What about the solubility [11] of the same sequence?
A: The solubility was no less than 315 µg/mL.

Q: What about the solubility [14] of the same sequence?
A: Its solubility is no less than 875 µg/mL.

Q: What about the solubility [12] of the same sequence?
A: The solubility was no less than 777 µg/mL.
